{"source": "patent US9822069B2", "about": "“Urea derivative or pharmacologically acceptable salt thereof” (KYORIN PHARMACEUTICAL CO. LTD., priority 2013, dated 2017)", "biological_target": "T1, human FPRL1 (Homo sapiens, UniProt P25090)", "T1 construct": "expressed in transfected cells; host or cells: HEK293 (JCRB9068, NIBIO), transient transfection with pCMV-script vectors using Lipofectamine 2000", "T1 sequence (P25090 1-351)": "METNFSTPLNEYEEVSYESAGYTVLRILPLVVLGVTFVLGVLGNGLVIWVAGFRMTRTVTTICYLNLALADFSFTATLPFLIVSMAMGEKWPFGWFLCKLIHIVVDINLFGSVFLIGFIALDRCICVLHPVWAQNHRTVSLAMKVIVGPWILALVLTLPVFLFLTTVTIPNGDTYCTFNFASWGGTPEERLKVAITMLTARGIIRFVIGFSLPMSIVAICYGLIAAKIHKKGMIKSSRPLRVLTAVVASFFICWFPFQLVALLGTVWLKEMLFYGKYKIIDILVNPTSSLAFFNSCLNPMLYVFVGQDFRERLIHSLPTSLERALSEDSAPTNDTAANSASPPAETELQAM", "experiment": "Measurement test of agonist activity on human FPRL1 (test of calcium mobilization in cell, HEK293 with human FPRL1 and Gα15 expression vectors)", "assay_type": "cell-based", "conditions": "calcium mobilization in HEK293 cells with human FPRL1 and Gα15 expression vectors", "source_text": "Measurement Test of Agonist Activity on Human FPRL1\n(1-1) Construction of Human FPRL1 Expression Vector\nHuman FPRL (SEQ ID NO: 3) was amplified in a PCR reaction from cDNA derived from a monocytic leukemia cell line THP-1 (TIB-202, ATCC) as a template using a forward primer shown in SEQ ID NO: 1, a reverse primer shown in SEQ ID NO: 2, and KOD-plus-ver. 2 (KOD-211, TOYOBO CO., LTD.). The amplified PCR product and pCMV-script vector (212220, STRATAGENE) were digested with Hind III (1060A, Takara Bio Inc.) and XhoI (1094A, Takara Bio Inc.), and the resultant digest was ligated with Ligation high ver. 2 (LGK-201, TOYOBO CO., LTD.). The ligation product was transformed into DH5α (DNA-901, TOYOBO CO., LTD.), cultured on a 100 μg/mL kanamycin-containing LB medium, and purified with HiSpeed Plasmid Maxi Kit (12662, QIAGEN).\n(1-2) Construction of Human Gα15 Expression Vector\nHuman Gα15 (SEQ ID NO: 6) was amplified in a PCR reaction from cDNA derived from a myeloid leukemia cell line HL-60 (CCL-240, ATCC) as a template using a forward primer shown in SEQ ID NO: 4, a reverse primer shown in SEQ ID NO: 5, and KOD-plus-ver. 2. The amplified PCR product and pCMV-script vector were digested with Hind III and XhoI, and the resultant digest was ligated with Ligation high ver. 2. The ligation product was transformed into DH5α, cultured on a 100 μg/mL kanamycin-containing LB medium, and purified with HiSpeed Plasmid Maxi Kit.\n(2-1) Method for Culturing and Subculturing HEK293\nHEK293 (JCRB9068, NIBIO) was cultured in an incubator at 5% CO2 and 37° C. using DMEM (11885-092, GIBCO) containing 10% FBS and 1× Penicillin-Streptomycin (15140-122, GIBCO). Subculture was carried out as followings: The cells that reached 80 to 90% confluency were washed with PBS(−), separated using 0.25% Trypsin-EDTA (25200-072, GIBCO), centrifuged, re-suspended in a fresh medium, and then seeded in Collagen Type 1 Coated dish (4020-010, IWAKI) at a split ratio of 1:8 (cultured for 3 days).\n(2-2) Introduction of Human FPRL1 and Gα15 Expression Vectors\nHEK293 that reached 80 to 90% confluency was washed with PBS(−), separated using 0.25% Trypsin-EDTA, centrifuged, and re-suspended in a fresh medium excluding 1× Penicillin-Streptomycin. The cells were inoculated in a Collagen Type 1 coated 6-well plate (4810-010, IWAKI) to 5×10^5 cells/2.5 mL/well and cultured overnight. On the next day, human FPRL1 and Gα15 expression vectors were introduced using Lipofectamine 2000 transfection reagent (11668-019, Life technologies). First, the human FPRL1 and Gα15 expression vectors were diluted with Opti-MEM I Reduced Serum Medium (31985-070, GIBCO) to 2 μg/250 μL/well and Lipofectamine 2000 transfection reagent was diluted with Opti-MEM I Reduced Serum Medium to be 4 μL/250 μL/well. The vectors and reagent were softly diffused, and incubated at room temperature for 5 minutes. The vector solution was mixed with Lipofectamine 2000 transfection reagent in equal amounts. In order to form a composite of the vectors and Lipofectamine 2000 transfection reagent, the mixture was incubated at room temperature for 20 minutes, and added at 500 μL/well to the medium of inoculated cells. The treated cells were cultured for 24 hours, inoculated in Poly-D-Lysine coated 96-well plate (356640, BD Biosciences) at a cell density of 7×10^4 cells/100 μL/well, and cultured for another 24 hours. The resultant cells were used in a measurement test of calcium mobilization in the cells.\n(3) Evaluation of Agonist Activity on Human FPRL1 (Test of Calcium Mobilization in Cell)\nAn appropriate amount of each test compound was first weighed, and dissolved to 10^−2 M by addition of dimethyl sulfoxide (DMSO). […]", "data": [{"smiles": "COc1cc(F)c([C@@H]2CN(CCO)C(=O)[C@H]2NC(=O)Nc2ccc(Cl)nc2)c(F)c1", "note": "(relative stereo) [Example 24-9, (−)-1-(6-chloropyridin-3-yl)-3-[(3S*,4R*)-4-(2,6-difluoro-4-methoxyphenyl)-1-(2-hydroxyethyl)-2-oxopyrrolidin-3-yl]urea]", "values": [{"measurement": "EC50", "value": 0.88, "unit": "nM"}]}, {"smiles": "COc1cc(F)c([C@@H]2CN(CCO)C(=O)[C@H]2NC(=O)Nc2cc3ccccc3s2)c(F)c1", "note": "(relative stereo) [Example 24-10, (−)-1-(benzo[b]thiophen-2-yl)-3-[(3S*,4R*)-4-(2,6-difluoro-4-methoxyphenyl)-1-(2-hydroxyethyl)-2-oxopyrrolidin-3-yl]urea]", "values": [{"measurement": "EC50", "value": 1, "unit": "nM"}]}, {"smiles": "CCCN1C[C@@H](c2c(F)cc(OC)cc2F)[C@H](NC(=O)Nc2ccc(F)cc2)C1=O", "note": "(relative stereo) [Example 24-11, (−)-1-[(3S*,4R*)-4-(2,6-difluoro-4-methoxyphenyl)-2-oxo-1-propylpyrrolidin-3-yl]-3-(4-fluorophenyl)urea]", "values": [{"measurement": "EC50", "value": 0.06, "unit": "nM"}]}, {"smiles": "COc1cc(F)c([C@@H]2CN(Cc3ccccc3)C(=O)[C@H]2NC(=O)Nc2ccc(F)cc2)c(F)c1", "note": "(relative stereo) [Example 24-12, (−)-1-[(3S*,4R*)-1-benzyl-4-(2,6-difluoro-4-methoxyphenyl)-2-oxopyrrolidin-3-yl]-3-(4-fluorophenyl)urea]", "values": [{"measurement": "EC50", "value": 2.2, "unit": "nM"}]}, {"smiles": "COc1cc(F)c([C@@H]2CN(Cc3cccnc3)C(=O)[C@H]2NC(=O)Nc2ccc(F)cc2)c(F)c1", "note": "(relative stereo) [Example 24-13, (−)-1-[(3S*,4R*)-4-(2,6-difluoro-4-methoxyphenyl)-2-oxo-1-(pyridin-3-ylmethyl)pyrrolidin-3-yl]-3-(4-fluorophenyl)urea]", "values": [{"measurement": "EC50", "value": 0.11, "unit": "nM"}]}, {"smiles": "COc1cc(F)c([C@@H]2CN(CS(C)(=O)=O)C(=O)[C@H]2NC(=O)Nc2ccc(F)cc2)c(F)c1", "note": "(relative stereo) [Example 24-14, (−)-1-{(3S*,4R*)-4-(2,6-difluoro-4-methoxyphenyl)-1-[(methylsulfonyl)methyl]-2-oxopyrrolidin-3-yl}-3-(4-fluorophenyl)urea]", "values": [{"measurement": "EC50", "value": 0.12, "unit": "nM"}]}, {"smiles": "COc1cc(F)c([C@@H]2CN(CS(N)(=O)=O)C(=O)[C@H]2NC(=O)Nc2ccc(F)cc2)c(F)c1", "note": "(relative stereo) [Example 24-15, (−)-{(3S*,4R*)-4-(2,6-difluoro-4-methoxyphenyl)-3-[3-(4-fluorophenyl)ureido]-2-oxopyrrolidin-1-yl}methanesulfonamide]", "values": [{"measurement": "EC50", "value": 0.03, "unit": "nM"}]}, {"smiles": "COc1ccc([C@@H]2CNC(=O)[C@H]2NC(=O)Nc2ccc(F)c(F)c2)cc1", "note": "(single isomer, unassigned) [EXAMPLE 1-3, (-)-1-(3,4-difluorophenyl)-3-[(3S*,4R*)-4-(4-methoxyphenyl)-2-oxopyrrolidin-3-yl]urea]", "values": [{"measurement": "EC50", "value": 2.57, "unit": "nM"}]}, {"smiles": "COc1ccc([C@@H]2CNC(=O)[C@H]2NC(=O)Nc2ccc(C#N)cc2)cc1", "note": "(single isomer, unassigned) [EXAMPLE 1-5, (−)-1-(4-cyanophenyl)-3-[(3S*,4R*)-4-(4-methoxyphenyl)-2-oxopyrrolidin-3-yl]urea]", "values": [{"measurement": "EC50", "value": 2.88, "unit": "nM"}]}, {"smiles": "COc1ccc([C@@H]2CN(C)C(=O)[C@H]2NC(=O)Nc2ccc(Cl)cc2)cc1", "note": "(single isomer, unassigned) [EXAMPLE 1-6, (−)-1-(4-chlorophenyl)-3-[(3S*,4R*)-4-(4-methoxyphenyl)-1-methyl-2-oxopyrrolidin-3-yl]urea]", "values": [{"measurement": "EC50", "value": 0.2, "unit": "nM"}]}, {"smiles": "COc1ccc([C@@H]2CNC(=O)[C@H]2NC(=O)Nc2ccc(F)cc2)cc1F", "note": "(single isomer, unassigned) [EXAMPLE 1-8, (−)-1-[(3S*,4R*)-4-(3-fluoro-4-methoxyphenyl)-2-oxopyrrolidin-3-yl]-3-(4-fluorophenyl)urea]", "values": [{"measurement": "EC50", "value": 0.9, "unit": "nM"}]}, {"smiles": "COc1ccc([C@@H]2CNC(=O)[C@H]2NC(=O)Nc2ccc(F)cc2)c(C)c1", "note": "(single isomer, unassigned) [EXAMPLE 1-11, (−)-1-(4-fluorophenyl)-3-[(3S*,4R*)-4-(4-methoxy-2-methylphenyl)-2-oxopyrrolidin-3-yl]urea]", "values": [{"measurement": "EC50", "value": 1.59, "unit": "nM"}]}, {"smiles": "COc1cc(F)c([C@@H]2CNC(=O)[C@H]2NC(=O)Nc2ccc(F)cc2)cc1F", "note": "(single isomer, unassigned) [EXAMPLE 1-13, (−)-1-[(3S*,4R*)-4-(2,5-difluoro-4-methoxyphenyl)-2-oxopyrrolidin-3-yl]-3-(4-fluorophenyl)urea]", "values": [{"measurement": "EC50", "value": 0.15, "unit": "nM"}]}, {"smiles": "COc1c(F)cc([C@@H]2CNC(=O)[C@H]2NC(=O)Nc2ccc(F)cc2)cc1F", "note": "(single isomer, unassigned) [EXAMPLE 1-14, (−)-1-[(3S*,4R*)-4-(3,5-difluoro-4-methoxyphenyl)-2-oxopyrrolidin-3-yl]-3-(4-fluorophenyl)urea]", "values": [{"measurement": "EC50", "value": 4.12, "unit": "nM"}]}, {"smiles": "COc1ccc([C@@H]2CNC(=O)[C@H]2NC(=O)Nc2ccc(F)cc2)s1", "note": "(single isomer, unassigned) [EXAMPLE 1-19, (−)-1-(4-fluorophenyl)-3-[(3S*,4R*)-4-(5-methoxythiophen-2-yl)-2-oxopyrrolidin-3-yl]urea]", "values": [{"measurement": "EC50", "value": 0.72, "unit": "nM"}]}, {"smiles": "CSc1ccc([C@@H]2CNC(=O)[C@H]2NC(=O)Nc2ccc(F)cc2)cc1", "note": "(single isomer, unassigned) [EXAMPLE 1-20, (−)-1-(4-fluorophenyl)-3-[(3S*,4R*)-4-(4-methylthiophenyl)-2-oxopyrrolidin-3-yl]urea]", "values": [{"measurement": "EC50", "value": 1.75, "unit": "nM"}]}, {"smiles": "COc1ccc(NC(=O)N[C@@H]2C(=O)NC[C@H]2c2c(F)cc(OC)cc2F)cc1", "note": "(single isomer, unassigned) [EXAMPLE 1-24, (−)-1-[(3S*,4R*)-4-(2,6-difluoro-4-methoxyphenyl)-2-oxopyrrolidin-3-yl]-3-(4-methoxyphenyl)urea]", "values": [{"measurement": "EC50", "value": 3.2, "unit": "nM"}]}, {"smiles": "CCOC(=O)CN1C[C@@H](c2c(F)cc(OC)cc2F)[C@H](NC(=O)Nc2ccc(F)cc2)C1=O", "note": "(single isomer, unassigned) [EXAMPLE 24-16, (−)-2-{(3S*,4R*)-4-(2,6-difluoro-4-methoxyphenyl)-3-[3-(4-fluorophenyl)ureido]-2-oxopyrrolidin-1-yl}acetic acid ethyl ester]", "values": [{"measurement": "EC50", "value": 0.15, "unit": "nM"}]}, {"smiles": "COc1cc(F)c([C@@H]2CN(Cc3ncc(C)o3)C(=O)[C@H]2NC(=O)Nc2ccc(F)cc2)c(F)c1", "note": "(single isomer, unassigned) [EXAMPLE 24-17, (−)-1-{(3S*,4R*)-4-(2,6-difluoro-4-methoxyphenyl)-1-[(5-methyloxazol-2-yl)methyl]-2-oxopyrrolidin-3-yl}-3-(4-fluorophenyl)urea]", "values": [{"measurement": "EC50", "value": 0.02, "unit": "nM"}]}, {"smiles": "COc1cc(F)c([C@@H]2CN(Cc3nnc(C)o3)C(=O)[C@H]2NC(=O)Nc2ccc(F)cc2)c(F)c1", "note": "(single isomer, unassigned) [EXAMPLE 24-18, (−)-1-{(3S*,4R*)-4-(2,6-difluoro-4-methoxyphenyl)-1-[(5-methyl-1,3,4-oxadiazol-2-yl)methyl]-2-oxopyrrolidin-3-yl}-3-(4-fluorophenyl)urea]", "values": [{"measurement": "EC50", "value": 0.03, "unit": "nM"}]}]}
